Measurements as given in US20020155443A1, “Metal binding DNA interactive compounds” (priority 2000, published 2002).

Experiments:
Form I DNA = assay: Cleavage of Form I DNA under mildly alkaline conditions; assay type: biochemical; conditions: mildly alkaline (pH 8.5) conditions
Excerpt: It is believed that the DNA damage due to 2.12 is insensitive to either the addition of radical scavengers or the exclusion of oxygen. Additionally, treatment of a methanolic solution of 2.12 with aqueous NaOH led to the production of the bis(enol ether) 2.13 as depicted in FIG. 4.

[1] = test system: B16 murine melanoma cells; assay: Growth inhibition of B16 murine melanoma cells, MTT assay; assay type: cell-based; conditions: Mus musculus, B16, read-out: IC50, growth inhibition
Protocol: The growth inhibitory activities of bis(propargylic) sulfone crown ethers 2.47 and 2.48 against B16 murine melanoma cells were determined calorimetrically with an MTT assay conducted by the Institute for Drug Development at the Cancer Research and Therapy Center in San Antonio, Tex.

SMILES	melting point	also measured
O=S1(=O)CC#CCOCCOCCOCCOCC#CC1 [Compound 2.12]	–	cleavage of Form I DNA (Form I DNA): dose-dependent cleavage
CCOC(=O)c1cccc(CS(=O)(=O)CC#CCO)c1 [Compound 3.3]	79.5 to 80.5 °C	–
O=S1(=O)CC#CCOc2ccccc2OCC#CC1 [Compound 2.10]	176.5 to 177.5 °C	–
C1#CCOCCOCCOCCOCCOCCOCC#C/C=C\1 [Compound 4.7]	–	IC50 [1]: 68 µM
